Results on two molecules are retold here after BindingDB's records for patent US20240199535 (Immunic, 2024).

This assay deals with Dihydroorotate dehydrogenase (quinone), mitochondrial (Homo sapiens, UniProt Q02127).

In general, Ki refers to a measure of affinity in units of concentration, obtained from inhibition or displacement.

SMILES strings stand for the structures.

Sequence of Dihydroorotate dehydrogenase (quinone), mitochondrial (Q02127 whole entry): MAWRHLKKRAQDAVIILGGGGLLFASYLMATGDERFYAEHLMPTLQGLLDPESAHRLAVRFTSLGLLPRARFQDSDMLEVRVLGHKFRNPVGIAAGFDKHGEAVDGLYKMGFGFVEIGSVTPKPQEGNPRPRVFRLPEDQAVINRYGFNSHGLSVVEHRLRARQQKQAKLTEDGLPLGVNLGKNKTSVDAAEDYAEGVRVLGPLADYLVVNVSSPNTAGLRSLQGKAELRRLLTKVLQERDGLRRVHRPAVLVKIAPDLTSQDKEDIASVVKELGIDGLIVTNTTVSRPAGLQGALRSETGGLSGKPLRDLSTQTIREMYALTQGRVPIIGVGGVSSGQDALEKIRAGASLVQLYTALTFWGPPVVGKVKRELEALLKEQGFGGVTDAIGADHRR
Protocol: Briefly, the hDHODH concentration was adjusted in a way that an average slope of approximately 0.2 AU/min served as the positive control (e.g. without inhibitor). The standard assay mixture contained 60 μM 2,6-dichloroindophenol, 50 μM decylubiquinone and 100 μM dihydroorotate. The hDHODH enzyme with or without at least six different concentrations of the compounds was added and measurements were performed in 50 mM TrisHCl, 150 mM KCl and 0.1% Triton X-100 at pH 8.0 and at 30° C. The reaction was started by adding dihydroorotate and measuring the absorption at 600 nm for 2 min. For the determination of the IC50 values, each data point was recorded in triplicate. For the determination of the inhibitory constant Ki, the KM values for DHO and decylubichinon were determined. Afterwards, the compounds were diluted in a dilution series depending on their IC50 values in DMSO.

Molecule `O=C(Nc1c(F)c(F)c(-c2cccc(OC(F)(F)F)c2)c(F)c1F)c1ccsc1C(=O)O` [US20240199535, Example 4] showed a Ki of 3.7 nM.
On to `O=C(O)C1=C(C(=O)Nc2ccc(-c3cccc(OC(F)F)c3)cc2F)CCC1` [US20240199535, Example 5], for which the affinity corresponds to a Ki of 1820 nM.
